{"source": "patent US6117849A", "about": "“S-(+)-adenosylmethionine and 3'-azido-2', 3'-dideoxy-nucleoside complexes as potent inhibitors of HIV-replication” (Symbio Herborn Group GmbH & Co., priority 1996, dated 2000)", "key": {"HIV-1 isolate of HIV IIB": {"test_system": "HIV-1 isolate of HIV IIB", "test": "HIV replication in de novo infected lymphocyte cultures, viral core protein p24 endpoint", "format": "cell-based, HIV-1 (in human peripheral blood lymphocytes)", "details": "FIG. 1, p24", "experimental": "For this purpose, SAM has been tested in a dose response titration ranging from 1000 μg/mL to 10 μg/mL final concentrations for the ability to inhibit HIV replication in de novo infected cells. Endpoint in this assay was the quantitative determination of the concentration of the viral core protein p24 as described by Mueller et al. (Mueller, Ch., Moritz, R., Prigge, G., Weitzel, D., Kunze, R., Kage, A., Koettgen, E., Fresenius Z. Anal. Chem.,330, 352-353, 1988). […] The toxicity testing of cellular proliferation was performed according to J. Mosmann (J. Immunological Methods, 65, 55-63, 1983). […] All experiments were carried out in triplicate cultures, including those for the various concentrations of the molecular complexes tested.--The lymphocytes were infected with a standardized preparation of HIV-1 isolate of HIV IIB. The cells were sedimented by low speed centrifugation, the sediment resuspended in the assay buffer (standard), and the resuspended cells were inoculated by adjusting to the following conditions: 100 ng of viral core protein p24/mL and 3200 pg HIV RNA/mL, respectively. Normally 3×10^8 lymphocytes were suspended in 1 mL if the HIV inoculum, and incubated at 37° C. for 60 minutes. After washing the cells twice with 50 mL of culture medium the cells were resuspended at a concentration of 3×10^6 cells/mL in culture medium which contains 10 units/mL of human recombinant interleukin-2. 100 μL of this cell suspension were added to 100 μL of the pre-diluted solution of the compounds to be tested, without adding any salt or protein. The entire assay was cultivated in humidified atmosphere in the presence of 5% CO2 at 37° C. After the 4th day of infection the viral replication was determined in the lymphocyte cultures. The end point of the titration was the determination of the viral core protein p24 in the supernatant of each of the lymphocyte cultures. 150 μL of the supernatant were removed and transferred to a vial containing 50 μL/well SDS at a final concentration of 0.08% (w/w). The concentration of the synthesized p24 by the HIV infected cells was determined according to Mueller et al., using recombinant p24 as a standard for calibration."}, "IL-β, IL-2": {"test_system": "IL-β, IL-2", "test": "Cytokine biosynthesis after stimulation of lymphocytes", "format": "cell-based", "details": "after phytohemagglutination stimulation"}, "HIV": {"test_system": "HIV", "test": "TPA- or cytokine-stimulated HIV replication/expression", "format": "cell-based", "details": "in vitro"}, "thymidylate kinase": {"test_system": "thymidylate kinase", "test": "Inhibition of thymidylate kinase, in vitro", "format": "biochemical"}, "[1]": {"test_system": "RT (triphosphatase activity)", "test": "Triphosphatase activity in presence of RT and phosphate", "format": "biochemical, HIV", "details": "in the presence of phosphate (Pi)", "description": "Furthermore the efficiency of such molecular complexes is also seen on the rate at which they are metabolized intra cellularly to the corresponding free ddNMP available to be further transformed to the triphosphate derivative active on the RT, which is enhanced due to these molecular complexes as shown through the kinetics in-vitro and in-vivo. In order to make this transformation feasible, the unique and stable molecular conformation of these complexes and their solvation facilitates the inhibitory and regulatory effects on RT, lipid penetration and inhibitory effects on the growing infective RNA or DNA polymeric chains. The avoidance of e.g. AZT-monophosphate accumulation, similarly also for other ddN N3 compounds, which causes severe inhibition of cellular dTMP kinase, resulting in a blockade of further phosphorylation steps, while on the contrary, the disclosed molecular complexes, appear to be unable to induce the same effects and is clearly incapable of inhibiting their own phosphorylation. This is completely different from those of the single administration of the components, e.g. SAM and ddN≈N3. […] This is also endorsed by the findings that the kinetics of inhibition on the RT enzyme is influenced by the presence of inorganic phosphate resulting in restoring active ATP during the presence of SAM. […]"}, "[2]": {"details": "human, in vivo"}, "[3]": {"biological_target": "T1, reverse transcriptase (RT) (HIV-1 M:B_HXB2R, UniProt P04585)", "details": "read-out: apparent Ki (recalculated, corrected for DTT); recalculated from literature", "from_the_text": "The disclosed inhibitory concentrations of SAM is meant as the apparent concentration of SAM, which inhibits under their in vitro assay conditions 50% of the RT activity. […] Inhibitory experiments using DTT, e g. for protecting sulfhydryl groups of the enzyme (RT), in their assay have to be omitted or corrected for, respectively, since DTT act as a strong reducing agent, particularly for SAM or SAM-tosylate-bis-sulfate which potentiates the reduction due to the sulfonium group which is being reduced to the sulfinium group, or to S-S-complexes comprising of SAM and DDT, respectively. […] Note, the determined inhibitory concentrations are not the ones which can be correlated to the ones according to Michaelis-Mentenkinetics."}, "[4]": {"biological_target": "T1, reverse transcriptase (RT)", "format": "biochemical", "set-up": "A2: RT in cord-blood lymphocyte cultures infected with HIV from an AIDS patient", "experimental": "The second in-vitro test uses the enzymatic activity of RT, testing the kinetic and inhibitory action of the molecular complexes. The cloning of the RT in biologically active form made it possible to have large quantities of the RT enzyme available for these studies (RT from Sigma, lot # R 9376).\nThe steady state reaction conditions for RT are chosen that approximate physiological conditions are met: pH 7.45 (37° C.), ionic strength of 150 mM, routinely a buffer was employed consisting of 50 mM TRIS-HCl, 100 mM KCl, 5 mM MgCl2, the addition of 10 μg/mL bovine serum albumin were included. […] The aforementioned precautions designed to avoid potential reduction of SAM in the presence of DTT are taken into accounts to preclude any distortions of the kinetic behavior of the RT enzyme in the presence of the various substrates e.g. as our molecular compounds. […] The enzyme concentrations of RT was approx. 20 nM, T-P (template-primer) […] and 25 μM of [^3 H]-dNTP (assay conditions are modified fro those of Mayunder et al., J. biol. Chem.,263, 15657, 1988). […] In case both parameters are effected to the same extent, then the inhibition is uncompetitive. In order to facilitate the difference between SAM kinetics and those for the molecular complexes we studied first SAM kinetics and subsequently the kinetics in the presence of the molecular complexes. […] Similar experiments have been carries out with dGTP.\nThe enzyme was assayed with 50 nM primer sites on poly (rA): oligo (dT), and variable concentrations of [^3 H] dTP as substrates in a reaction mixture as described above at pH 7.5 (37° C.)."}}}
{"smiles": "C[S+](CC[C@H](N)C(=O)O)C[C@H]1O[C@@H](n2cnc3c(N)ncnc32)[C@H](O)[C@@H]1O", "note": "(single isomer, unassigned; (+)) [SAM, (+)-5'-[(3-amino-3-carboxypropyl)methylsulfinio]-5'-deoxyadenosine]", "values": [{"measurement": "inhibition of HIV replication", "setting": "HIV-1 isolate of HIV IIB", "result": "inhibited HIV replication in a dose dependent response"}, {"measurement": "cytokine biosynthesis (IL-β, IL-2)", "setting": "IL-β, IL-2", "result": "influenced"}, {"measurement": "cytokine-activation of HIV expression", "setting": "HIV", "result": "does not inhibit cytokine-activation of HIV expression in vitro"}, {"measurement": "inhibition of thymidylate kinase", "setting": "thymidylate kinase", "result": "reversal of the inhibition of the thymidylate kinase"}, {"measurement": "triphosphatase activity", "setting": "[1]", "result": "stimulated"}, {"measurement": "CSF peak of SAM relative to plasma", "setting": "[2]", "result": "lower and more prolonged for healthy patients"}, {"measurement": "Ki", "setting": "[3]", "result": "200 to 250", "unit": "nM"}, {"measurement": "fraction unbound", "setting": "in vitro", "result": "0.95 to 0.97"}, {"measurement": "stability in RT assay with DTT", "setting": "[4]", "result": "destroy SAM"}]}
